# Reference: PubChem BioAssay (NCI)
#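 Cells were grown in 96-well plates and exposed to each compound for 48 hours at five concentrations; endpoints were interpolated linearly between bracketing concentrations, or set to the highest concentration if not reached. The concentration for full growth arrest is given as TGI.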
# Columns and labels:
# Test in all cases: NCI tumour cell line growth inhibition, 48 h
# COLO 205 colon = tested on: COLO 205 colon
# XF 498 CNS = tested on: XF 498 CNS
# RPMI-8226 leukemia = tested on: RPMI-8226 leukemia
# DMS 273 small cell lung = tested on: DMS 273 small cell lung
# CCRF-CEM leukemia = tested on: CCRF-CEM leukemia
# P388 leukemia = tested on: P388 leukemia
# HOP-18 NSCLC = tested on: HOP-18 NSCLC
# A549 NSCLC = tested on: A549 NSCLC
# DMS 114 small cell lung = tested on: DMS 114 small cell lung
# NCI-H522 lung = tested on: NCI-H522 lung
# HCT-15 colon = tested on: HCT-15 colon
# UACC-62 melanoma = tested on: UACC-62 melanoma
# P388/ADR leukemia = tested on: P388/ADR leukemia
# SK-OV-3 ovarian = tested on: SK-OV-3 ovarian
# HCT-116 colon = tested on: HCT-116 colon
# SK-MEL-5 melanoma = tested on: SK-MEL-5 melanoma
# U251 CNS = tested on: U251 CNS
# HOP-62 NSCLC = tested on: HOP-62 NSCLC
# OVCAR-8 ovarian = tested on: OVCAR-8 ovarian
# OVCAR-3 ovarian = tested on: OVCAR-3 ovarian
# NCI-H460 lung = tested on: NCI-H460 lung
# KM12 colon = tested on: KM12 colon
# SNB-75 CNS = tested on: SNB-75 CNS
# RXF 393 renal = tested on: RXF 393 renal
# M19-MEL melanoma = tested on: M19-MEL melanoma
# HL-60(TB) leukemia = tested on: HL-60(TB) leukemia
# SW-620 colon = tested on: SW-620 colon
# K-562 leukemia = tested on: K-562 leukemia
# NCI-H226 lung = tested on: NCI-H226 lung
# HCC-2998 colon = tested on: HCC-2998 colon
# LOX IMVI melanoma = tested on: LOX IMVI melanoma
# DLD-1 colon = tested on: DLD-1 colon
# KM20L2 colon = tested on: KM20L2 colon
# SF-539 CNS = tested on: SF-539 CNS
# MOLT-4 leukemia = tested on: MOLT-4 leukemia
# HT29 colon = tested on: HT29 colon
# NCI/ADR-RES ovarian = tested on: NCI/ADR-RES ovarian
# IGROV1 ovarian = tested on: IGROV1 ovarian
# A498 renal = tested on: A498 renal
# HOP-92 NSCLC = tested on: HOP-92 NSCLC
# CAKI-1 renal = tested on: CAKI-1 renal
# OVCAR-4 ovarian = tested on: OVCAR-4 ovarian
# SF-295 CNS = tested on: SF-295 CNS
# EKVX NSCLC = tested on: EKVX NSCLC
# SK-MEL-28 melanoma = tested on: SK-MEL-28 melanoma
# SF-268 CNS = tested on: SF-268 CNS
# MCF7 breast = tested on: MCF7 breast
# SNB-19 CNS = tested on: SNB-19 CNS
# UO-31 renal = tested on: UO-31 renal
# SN12C renal = tested on: SN12C renal
# OVCAR-5 ovarian = tested on: OVCAR-5 ovarian
# SK-MEL-2 melanoma = tested on: SK-MEL-2 melanoma
# UACC-257 melanoma = tested on: UACC-257 melanoma
# SN12K1 renal = tested on: SN12K1 renal
# NCI-H23 lung = tested on: NCI-H23 lung
# SR leukemia = tested on: SR leukemia
# SNB-78 CNS = tested on: SNB-78 CNS
# 786-0 renal = tested on: 786-0 renal
# MALME-3M melanoma = tested on: MALME-3M melanoma
# ACHN renal = tested on: ACHN renal
# LXFL 529 NSCLC = tested on: LXFL 529 NSCLC
# TK-10 renal = tested on: TK-10 renal
# M14 melanoma = tested on: M14 melanoma
# RXF-631 renal = tested on: RXF-631 renal
compound,measurement,setting,value
CCCNC(=O)C(C)C1CCC2(C)C=CC(=O)C(C)=C2C1O (configuration not stated),TGI,COLO 205 colon,> 100 µM
same,TGI,XF 498 CNS,> 100 µM
same,TGI,RPMI-8226 leukemia,> 100 µM
same,TGI,DMS 273 small cell lung,> 100 µM
same,TGI,CCRF-CEM leukemia,> 100 µM
same,TGI,P388 leukemia,> 100 µM
same,TGI,HOP-18 NSCLC,> 100 µM
same,TGI,A549 NSCLC,> 100 µM
same,TGI,DMS 114 small cell lung,> 100 µM
same,TGI,NCI-H522 lung,> 100 µM
same,TGI,HCT-15 colon,> 100 µM
same,TGI,UACC-62 melanoma,> 100 µM
same,TGI,P388/ADR leukemia,> 100 µM
same,TGI,SK-OV-3 ovarian,> 100 µM
same,TGI,HCT-116 colon,> 100 µM
same,TGI,SK-MEL-5 melanoma,> 100 µM
same,TGI,U251 CNS,> 100 µM
same,TGI,HOP-62 NSCLC,> 100 µM
same,TGI,OVCAR-8 ovarian,> 100 µM
same,TGI,OVCAR-3 ovarian,> 100 µM
same,TGI,NCI-H460 lung,> 100 µM
same,TGI,KM12 colon,> 100 µM
same,TGI,SNB-75 CNS,> 100 µM
same,TGI,RXF 393 renal,> 100 µM
same,TGI,M19-MEL melanoma,> 100 µM
same,TGI,HL-60(TB) leukemia,> 100 µM
same,TGI,SW-620 colon,> 100 µM
same,TGI,K-562 leukemia,> 100 µM
same,TGI,NCI-H226 lung,> 100 µM
same,TGI,HCC-2998 colon,> 100 µM
same,TGI,LOX IMVI melanoma,> 100 µM
same,TGI,DLD-1 colon,> 100 µM
same,TGI,KM20L2 colon,> 100 µM
same,TGI,SF-539 CNS,> 100 µM
same,TGI,MOLT-4 leukemia,> 100 µM
same,TGI,HT29 colon,> 100 µM
same,TGI,NCI/ADR-RES ovarian,> 100 µM
same,TGI,IGROV1 ovarian,> 100 µM
same,TGI,A498 renal,> 100 µM
same,TGI,HOP-92 NSCLC,> 100 µM
same,TGI,CAKI-1 renal,> 100 µM
same,TGI,OVCAR-4 ovarian,> 100 µM
same,TGI,SF-295 CNS,> 100 µM
same,TGI,EKVX NSCLC,> 100 µM
same,TGI,SK-MEL-28 melanoma,> 100 µM
same,TGI,SF-268 CNS,> 100 µM
same,TGI,MCF7 breast,> 100 µM
same,TGI,SNB-19 CNS,> 100 µM
same,TGI,UO-31 renal,> 100 µM
same,TGI,SN12C renal,> 100 µM
same,TGI,OVCAR-5 ovarian,> 100 µM
same,TGI,SK-MEL-2 melanoma,> 100 µM
same,TGI,UACC-257 melanoma,> 100 µM
same,TGI,SN12K1 renal,> 100 µM
same,TGI,NCI-H23 lung,> 100 µM
O=c1nc(NC2CCCCO2)ccn1CCO (configuration not stated),TGI,COLO 205 colon,> 100 µM
same,TGI,XF 498 CNS,> 100 µM
same,TGI,RPMI-8226 leukemia,> 100 µM
same,TGI,DMS 273 small cell lung,> 100 µM
same,TGI,CCRF-CEM leukemia,> 100 µM
same,TGI,HOP-18 NSCLC,> 100 µM
same,TGI,A549 NSCLC,> 100 µM
same,TGI,DMS 114 small cell lung,> 100 µM
same,TGI,NCI-H522 lung,> 100 µM
same,TGI,SR leukemia,> 100 µM
same,TGI,HCT-15 colon,> 100 µM
same,TGI,UACC-62 melanoma,> 100 µM
same,TGI,SNB-78 CNS,> 100 µM
same,TGI,SK-OV-3 ovarian,> 100 µM
same,TGI,HCT-116 colon,> 100 µM
same,TGI,SK-MEL-5 melanoma,> 100 µM
same,TGI,U251 CNS,> 100 µM
same,TGI,HOP-62 NSCLC,> 100 µM
same,TGI,OVCAR-8 ovarian,> 100 µM
same,TGI,786-0 renal,> 100 µM
same,TGI,MALME-3M melanoma,> 100 µM
same,TGI,OVCAR-3 ovarian,> 100 µM
same,TGI,NCI-H460 lung,> 100 µM
same,TGI,KM12 colon,> 100 µM
same,TGI,SNB-75 CNS,> 100 µM
same,TGI,RXF 393 renal,> 100 µM
same,TGI,M19-MEL melanoma,> 100 µM
same,TGI,HL-60(TB) leukemia,> 100 µM
same,TGI,SW-620 colon,> 100 µM
same,TGI,K-562 leukemia,> 100 µM
same,TGI,NCI-H226 lung,> 100 µM
same,TGI,LOX IMVI melanoma,> 100 µM
same,TGI,DLD-1 colon,> 100 µM
same,TGI,KM20L2 colon,> 100 µM
same,TGI,SF-539 CNS,> 100 µM
same,TGI,HT29 colon,> 100 µM
same,TGI,ACHN renal,> 100 µM
same,TGI,IGROV1 ovarian,> 100 µM
same,TGI,A498 renal,> 100 µM
same,TGI,HOP-92 NSCLC,> 100 µM
same,TGI,CAKI-1 renal,> 100 µM
same,TGI,OVCAR-4 ovarian,> 100 µM
same,TGI,SF-295 CNS,> 100 µM
same,TGI,EKVX NSCLC,> 100 µM
same,TGI,LXFL 529 NSCLC,> 100 µM
same,TGI,SK-MEL-28 melanoma,> 100 µM
same,TGI,SF-268 CNS,> 100 µM
same,TGI,TK-10 renal,> 100 µM
same,TGI,UO-31 renal,> 100 µM
same,TGI,SN12C renal,> 100 µM
same,TGI,M14 melanoma,> 100 µM
same,TGI,RXF-631 renal,> 100 µM
same,TGI,OVCAR-5 ovarian,> 100 µM
same,TGI,SK-MEL-2 melanoma,> 100 µM
same,TGI,UACC-257 melanoma,> 100 µM
CC(=O)Oc1cc2c(cc1OC(C)=O)OCC(c1ccccc1)C2 (configuration not stated),TGI,COLO 205 colon,47 µM
same,TGI,XF 498 CNS,25.3 µM
same,TGI,RPMI-8226 leukemia,54.5 µM
same,TGI,DMS 273 small cell lung,102 µM
same,TGI,CCRF-CEM leukemia,15.1 µM
same,TGI,P388 leukemia,9.97 µM
same,TGI,HOP-18 NSCLC,63.2 µM
same,TGI,A549 NSCLC,39.9 µM
same,TGI,DMS 114 small cell lung,32.3 µM
same,TGI,NCI-H522 lung,7.47 µM
same,TGI,HCT-15 colon,56.4 µM
same,TGI,UACC-62 melanoma,53.3 µM
same,TGI,SNB-78 CNS,111 µM
same,TGI,P388/ADR leukemia,11.7 µM
same,TGI,SK-OV-3 ovarian,72.3 µM
same,TGI,HCT-116 colon,57.4 µM
same,TGI,SK-MEL-5 melanoma,39 µM
same,TGI,U251 CNS,29.5 µM
same,TGI,HOP-62 NSCLC,54.3 µM
same,TGI,OVCAR-8 ovarian,73.5 µM
same,TGI,MALME-3M melanoma,37.9 µM
same,TGI,OVCAR-3 ovarian,58.9 µM
same,TGI,NCI-H460 lung,57.9 µM
same,TGI,KM12 colon,55.3 µM
same,TGI,SNB-75 CNS,26.6 µM
same,TGI,RXF 393 renal,30 µM
same,TGI,M19-MEL melanoma,45.7 µM
same,TGI,HL-60(TB) leukemia,9.01 µM
same,TGI,SW-620 colon,18.5 µM
same,TGI,K-562 leukemia,80.1 µM
same,TGI,NCI-H226 lung,48.5 µM
same,TGI,HCC-2998 colon,65.5 µM
same,TGI,LOX IMVI melanoma,46 µM
same,TGI,DLD-1 colon,27.4 µM
same,TGI,KM20L2 colon,61.1 µM
same,TGI,SF-539 CNS,48.7 µM
same,TGI,MOLT-4 leukemia,26.1 µM
same,TGI,HT29 colon,98.3 µM
same,TGI,NCI/ADR-RES ovarian,134 µM
same,TGI,IGROV1 ovarian,74.1 µM
same,TGI,A498 renal,12.2 µM
same,TGI,HOP-92 NSCLC,25.3 µM
same,TGI,CAKI-1 renal,39.2 µM
same,TGI,OVCAR-4 ovarian,55.4 µM
same,TGI,SF-295 CNS,49.8 µM
same,TGI,EKVX NSCLC,57.8 µM
same,TGI,SK-MEL-28 melanoma,53.1 µM
same,TGI,SF-268 CNS,52.2 µM
same,TGI,MCF7 breast,66.8 µM
same,TGI,SNB-19 CNS,48.5 µM
same,TGI,UO-31 renal,58.4 µM
same,TGI,SN12C renal,56.6 µM
same,TGI,OVCAR-5 ovarian,61.7 µM
same,TGI,SK-MEL-2 melanoma,54.7 µM
same,TGI,UACC-257 melanoma,29.2 µM
same,TGI,SN12K1 renal,38.6 µM
same,TGI,NCI-H23 lung,77.6 µM
